ChEMBL document CHEMBL1201862, “PubChem BioAssay data set” (2004)
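Interpolation was linear, between the two tested concentrations surrounding the appropriate level; five concentrations were tested over 48 hours in 96-well plates. The concentration for 50% growth inhibition is given as GI50.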 Active and inactive are the calls of the source. No stated cut-off is given here; in the data, active = GI50 up to about 1.1 µM and inactive = higher. Non-standard residues stand in square brackets, D forms with d. Residues, ends and D or L forms follow the SMILES beside them. *: point of attachment. hSer = N[CH](CCO)C(=O)O; Boc = CC(C)(C)OC(=O)*

Experiments:
Assay in all cases: NCI tumour cell line growth inhibition, 48 h
A549 = tested on: A549
COLO 205 = tested on: COLO 205
EKVX = tested on: EKVX
HCC 2998 = tested on: HCC 2998
HOP-62 = tested on: HOP-62
HOP-92 = tested on: HOP-92
HT-29 = tested on: HT-29
M14 = tested on: M14
Malme-3M = tested on: Malme-3M
NCI-H226 = tested on: NCI-H226
NCI-H460 = tested on: NCI-H460
NCI-H522 = tested on: NCI-H522
NCI/ADR-RES = tested on: NCI/ADR-RES
OVCAR-8 = tested on: OVCAR-8
SF-295 = tested on: SF-295
SK-MEL-2 = tested on: SK-MEL-2
SN12C = tested on: SN12C
SNB-75 = tested on: SNB-75
TK-10 = tested on: TK-10

SMILES	GI50 (A549)	GI50 (COLO 205)	GI50 (EKVX)	GI50 (HCC 2998)	GI50 (HOP-62)	GI50 (HOP-92)	GI50 (HT-29)	GI50 (M14)	GI50 (Malme-3M)	GI50 (NCI-H226)	GI50 (NCI-H460)	GI50 (NCI-H522)	GI50 (NCI/ADR-RES)	GI50 (OVCAR-8)	GI50 (SF-295)	GI50 (SK-MEL-2)	GI50 (SN12C)	GI50 (SNB-75)	GI50 (TK-10)
CCOC(=O)c1[nH]c2ccccc2c1C(=O)C[C@H](NC(=O)C(F)(F)F)C(=O)OC	> 100 µM (inactive)	> 100 µM (inactive)	> 100 µM (inactive)	> 100 µM (inactive)	> 100 µM (inactive)	> 100 µM (inactive)	> 100 µM (inactive)	> 100 µM (inactive)	> 100 µM (inactive)	> 100 µM (inactive)	29.3 µM (inactive)	97.3 µM (inactive)	84.1 µM (inactive)	> 100 µM (inactive)	> 100 µM (inactive)	> 100 µM (inactive)	> 100 µM (inactive)	> 100 µM (inactive)	> 100 µM (inactive)
O=C1N/C(=N/N=C/C(O)C(O)C(O)C(O)CO)N/C1=C\c1cccs1 (stereo not given)	94.4 µM (inactive)	> 100 µM (inactive)	87.1 µM (inactive)	> 100 µM (inactive)	> 100 µM (inactive)	> 100 µM (inactive)	> 100 µM (inactive)	> 100 µM (inactive)	> 100 µM (inactive)	> 100 µM (inactive)	> 100 µM (inactive)	88.5 µM (inactive)	> 100 µM (inactive)	> 100 µM (inactive)	> 100 µM (inactive)	> 100 µM (inactive)	> 100 µM (inactive)	> 100 µM (inactive)	> 100 µM (inactive)
COc1cc(C2SC(=N)Nc3c2c(C)nn3C(=O)c2ccccc2O)ccc1O (stereo not given)	1.36 µM (inactive)	> 5.55 µM (inactive)	> 2.63 µM (inactive)	> 6.62 µM (inactive)	> 2.61 µM (inactive)	> 10 µM (inactive)	> 6.38 µM (inactive)	> 2.85 µM (inactive)	0.513 µM (active)	> 2.25 µM (inactive)	0.317 µM (active)	> 3.84 µM (inactive)	> 2.38 µM (inactive)	> 2.33 µM (inactive)	1.28 µM (inactive)	> 2.86 µM (inactive)	> 2.64 µM (inactive)	1.04 µM (active)	> 2.96 µM (inactive)
COc1cc(/C=C2\C(=O)N(c3ccc(Cl)cc3)C(c3ccccc3)S2(=O)=O)cc(OC)c1OC (stereo not given)	17.8 µM (inactive)	1.99 µM (inactive)	26.8 µM (inactive)	41.4 µM (inactive)	> 34.5 µM (inactive)	51.9 µM (inactive)	42.5 µM (inactive)	0.522 µM (active)	42.3 µM (inactive)	> 84.1 µM (inactive)	3.95 µM (inactive)	14.5 µM (inactive)	12.4 µM (inactive)	93.1 µM (inactive)	11.9 µM (inactive)	9.77 µM (inactive)	> 25.8 µM (inactive)	53.8 µM (inactive)	> 63 µM (inactive)
COCCC(NC(=O)C(CC(C)C)NC(=O)OC(C)(C)C)C(N)=O (stereo not drawn) (Boc-Leu-[hSer](Me)-NH2; configuration not given here)	> 100 µM (inactive)	> 100 µM (inactive)	> 100 µM (inactive)	> 100 µM (inactive)	> 100 µM (inactive)	> 100 µM (inactive)	> 100 µM (inactive)	> 100 µM (inactive)	> 100 µM (inactive)	> 100 µM (inactive)	> 100 µM (inactive)	> 100 µM (inactive)	> 100 µM (inactive)	> 100 µM (inactive)	> 100 µM (inactive)	> 100 µM (inactive)	> 100 µM (inactive)	> 100 µM (inactive)	> 100 µM (inactive)
C/C(=N\NC(=O)N/N=C(\C)c1ccccn1)c1ccccn1	4.88 µM (inactive)	0.069 µM (active)	19.3 µM (inactive)	0.52 µM (active)	0.512 µM (active)	0.279 µM (active)	< 0.01 µM (active)	0.205 µM (active)	> 100 µM (inactive)	31 µM (inactive)	0.953 µM (active)	67.1 µM (inactive)	8.83 µM (inactive)	9.75 µM (inactive)	0.308 µM (active)	> 100 µM (inactive)	2.16 µM (inactive)	> 100 µM (inactive)	0.11 µM (active)
Nc1ncnc2nn(C3OC(CO)C(O)C3O)nc12 (stereo not given)	9.16 µM (inactive)	5.06 µM (inactive)	41.3 µM (inactive)	7.6 µM (inactive)	14 µM (inactive)	20 µM (inactive)	8.81 µM (inactive)	6.82 µM (inactive)	20.5 µM (inactive)	5.36 µM (inactive)	4.09 µM (inactive)	6.82 µM (inactive)	9.73 µM (inactive)	8.11 µM (inactive)	22 µM (inactive)	2.99 µM (inactive)	8.02 µM (inactive)	9.77 µM (inactive)	3.56 µM (inactive)
NS(=O)(=O)c1ccc(NCc2cnc3ccccc3c2)cc1	> 100 µM (inactive)	> 100 µM (inactive)	> 100 µM (inactive)	> 100 µM (inactive)	> 100 µM (inactive)	49.8 µM (inactive)	> 100 µM (inactive)	> 100 µM (inactive)	> 100 µM (inactive)	> 100 µM (inactive)	> 100 µM (inactive)	28.1 µM (inactive)	83.8 µM (inactive)	34.7 µM (inactive)	> 100 µM (inactive)	> 100 µM (inactive)	> 100 µM (inactive)	> 100 µM (inactive)	> 100 µM (inactive)
CCOC(=O)c1oc2cc3c(c4c2c1-c1ccccc1N4C)C=CC(C)(C)O3	24.5 µM (inactive)	> 65.3 µM (inactive)	15.3 µM (inactive)	65.3 µM (inactive)	6.84 µM (inactive)	3.72 µM (inactive)	9.51 µM (inactive)	40.2 µM (inactive)	12 µM (inactive)	16.8 µM (inactive)	20.5 µM (inactive)	8.71 µM (inactive)	6.3 µM (inactive)	5.85 µM (inactive)	8.81 µM (inactive)	26.6 µM (inactive)	40.6 µM (inactive)	12.6 µM (inactive)	7.1 µM (inactive)
COc1ccc2c(c1)CCC(CN1CCN(CCOC(c3ccc(F)cc3)c3ccc(F)cc3)CC1)C2O (stereo not given)	16.3 µM (inactive)	4.59 µM (inactive)	11.6 µM (inactive)	3.49 µM (inactive)	16.1 µM (inactive)	12.2 µM (inactive)	5.09 µM (inactive)	12.2 µM (inactive)	14.4 µM (inactive)	16 µM (inactive)	16.4 µM (inactive)	14.8 µM (inactive)	12.5 µM (inactive)	13.8 µM (inactive)	17.9 µM (inactive)	15 µM (inactive)	17.3 µM (inactive)	16.8 µM (inactive)	15 µM (inactive)
